Experiment [1] concerns the target vasopressin V1 receptor (rat liver plasma membranes) (Rattus norvegicus, UniProt P30560). The experiment can be described thus: Binding Assay to Rat Hepatic V1 Receptors. The note with it: rat hepatic V1.
The next experiment has as its system vasopressin V2. The experiment can be described thus: Vasopressin V2 Antagonist Activity in Conscious Hydrated Rats (diuretic effect). Format: in vivo, normal Sprague-Dawley rats. To be noted: AVP 0.4 μg/kg i.p. The method, boiled down: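 Conscious rats were dosed orally at 0.1–100 mg/kg, and AVP 0.4 μg/kg i.p. in peanut oil followed 1 h later. Urine volume, osmolality and Na/K/Cl were compared against AVP-treated controls, with non-AVP rats as water-loading controls.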

Experiment [2] has as its target T1, rat kidney medullary V2 receptors (Rattus norvegicus, UniProt Q00788).
T1 construct: Medullary tissues from rat kidneys are dissected out; from tissue; host or cells: rat kidney medulla membranes
The experiment can be described thus: Binding Assay to Rat Kidney Medullary V2 Receptors. The note with it: rat kidney medullary V2. In short, it runs like this:
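Competition binding: [3H]AVP at 0.8 nM, test compounds from 50% DMSO, and membranes from rat kidney medulla, left 120 min on the bench. Filtration then liquid scintillation counting measured bound ligand; 1.0 μM unlabeled ligand set non-specific binding.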

For a further experiment, the system named is vasopressin V1. The experiment can be described thus: Vasopressin V1 Antagonist Activity in Conscious Rats (vasopressin vasopressor response). On the set-up: Average Change: unit not given here. It is filed as in vivo, rat (spontaneously hypertensive rats). The method, boiled down:
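Conscious rats had the ventral caudal tail artery cannulated into the lower abdominal aorta under local procaine anesthesia, plus a caudal vein cannula for intravenous dosing. Pulsatile blood pressure was recorded via a Statham P23Db transducer. Vasopressor responses to vasopressin injections were measured before and after compound dosing, with percent antagonism calculated relative to the pre-drug response taken as 100%.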

The mark [3] stands for this setting: 10 mg/kg i.v., VAS 0.01 i.u./kg, 30 min.
The mark [4] stands for this setting: 10 mg/kg i.v., VAS 0.05 i.u./kg, 30 min.
Setting [5] is: 10 mg/kg i.v., VAS 0.1 i.u./kg, 30 min.
The mark [6] stands for this setting: 20 mg/kg i.v., VAS 0.01 i.u./kg, 60 min.
Setting [7] is: 20 mg/kg i.v., VAS 0.01 i.u./kg, 300 min.
[8] abbreviates: 20 mg/kg i.v., VAS 0.05 i.u./kg, 60 min.
[9] abbreviates: 20 mg/kg i.v., VAS 0.05 i.u./kg, 90 min.
The mark [10] stands for this setting: 20 mg/kg i.v., VAS 0.05 i.u./kg, 120 min.
[11] abbreviates: 20 mg/kg i.v., VAS 0.05 i.u./kg, 180 min.
The mark [12] stands for this setting: 20 mg/kg i.v., VAS 0.05 i.u./kg, 240 min.
The mark [13] stands for this setting: 20 mg/kg i.v., VAS 0.05 i.u./kg, 300 min.
[14] abbreviates: 20 mg/kg i.v., VAS 0.1 i.u./kg, 60 min.
[15] abbreviates: 20 mg/kg i.v., VAS 0.1 i.u./kg, 90 min.
Where [16] appears, read: 20 mg/kg i.v., VAS 0.1 i.u./kg, 120 min.
Where [17] appears, read: 20 mg/kg i.v., VAS 0.1 i.u./kg, 180 min.
The mark [18] stands for this setting: 20 mg/kg i.v., VAS 0.1 i.u./kg, 240 min.
Setting [19] is: 20 mg/kg i.v., VAS 0.1 i.u./kg, 300 min.
The mark [20] stands for this setting: 50 mg/kg p.o., VAS 0.01 i.u./kg, 30 min.
Where [21] appears, read: 50 mg/kg p.o., VAS 0.01 i.u./kg, 60 min.
Where [22] appears, read: 50 mg/kg p.o., VAS 0.01 i.u./kg, 90 min.
[23] abbreviates: 50 mg/kg p.o., VAS 0.01 i.u./kg, 120 min.
[24] abbreviates: 50 mg/kg p.o., VAS 0.01 i.u./kg, 180 min.
[25] abbreviates: 50 mg/kg p.o., VAS 0.01 i.u./kg, 240 min.
Setting [26] is: 50 mg/kg p.o., VAS 0.02 i.u./kg, 30 min.
Setting [27] is: 50 mg/kg p.o., VAS 0.02 i.u./kg, 60 min.
Where [28] appears, read: 50 mg/kg p.o., VAS 0.02 i.u./kg, 90 min.
The mark [29] stands for this setting: 50 mg/kg p.o., VAS 0.02 i.u./kg, 120 min.
Setting [30] is: 50 mg/kg p.o., VAS 0.02 i.u./kg, 180 min.
The mark [31] stands for this setting: 50 mg/kg p.o., VAS 0.02 i.u./kg, 240 min.

Sequence of vasopressin V1 receptor (rat liver plasma membranes) (P30560 whole entry): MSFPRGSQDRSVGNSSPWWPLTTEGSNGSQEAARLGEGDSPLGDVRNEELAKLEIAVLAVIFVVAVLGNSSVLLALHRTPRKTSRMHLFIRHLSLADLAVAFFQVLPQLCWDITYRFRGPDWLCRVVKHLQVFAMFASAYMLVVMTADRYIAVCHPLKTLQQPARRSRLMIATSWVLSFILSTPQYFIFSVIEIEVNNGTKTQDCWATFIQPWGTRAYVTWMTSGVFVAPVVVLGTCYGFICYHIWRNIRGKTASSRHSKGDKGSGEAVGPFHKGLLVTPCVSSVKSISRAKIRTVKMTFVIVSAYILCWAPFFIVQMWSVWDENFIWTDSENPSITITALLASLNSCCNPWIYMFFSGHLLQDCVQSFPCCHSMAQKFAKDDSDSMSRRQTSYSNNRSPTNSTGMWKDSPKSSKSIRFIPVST
T1 sequence (Q00788 whole entry): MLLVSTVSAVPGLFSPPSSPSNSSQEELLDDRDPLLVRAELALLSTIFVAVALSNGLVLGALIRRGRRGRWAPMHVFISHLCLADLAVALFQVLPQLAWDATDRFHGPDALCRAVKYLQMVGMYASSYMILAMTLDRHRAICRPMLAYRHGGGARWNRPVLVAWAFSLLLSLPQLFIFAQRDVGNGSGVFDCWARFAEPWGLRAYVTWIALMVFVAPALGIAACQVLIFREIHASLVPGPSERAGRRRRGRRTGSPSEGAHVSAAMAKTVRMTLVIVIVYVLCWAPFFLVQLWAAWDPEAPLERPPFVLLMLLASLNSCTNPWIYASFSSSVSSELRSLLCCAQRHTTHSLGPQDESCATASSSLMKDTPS

The term IC50 denotes the concentration that gives 50% inhibition. As usually defined, the Inhibition is the change of the read-out against control, counted positive when it falls. With `Cc1ccccc1C(=O)Nc1ccc(C(=O)N2Cc3ccccc3-c3ccccc32)cc1` [Example 5, 2-Methyl-N-[4-[(5(6H)-phenanthridinyl)carbonyl]phenyl]benzamide], the half-maximal inhibitory concentration (IC50) was found to be 56 nM in experiment [1] and 29 nM in experiment [2]. Moreover, in the experiment with vasopressin V2 (10 mg/kg orally), the Osmolality came to 1137 mOsm/kg. Also, the “Urine Volume” value in the experiment on vasopressin V2 (10 mg/kg orally) is on record as 2 ml/4 hrs. In addition, the “Average Change” value is listed as 35 in the experiment on vasopressin V1 (setting [3]); 30 with vasopressin V1 (setting [4]); 35 in the experiment on vasopressin V1 (setting [5]); 17.5 in the experiment on vasopressin V1 (setting [6]); 30 in the experiment with vasopressin V1 (setting [7]); 10 in the experiment with vasopressin V1 (setting [8]). Also, the “Average Change” value with vasopressin V1 (setting [9]) was found to be 10; in the experiment with vasopressin V1 (setting [10]), 15; with vasopressin V1 (setting [11]) it was 12.5; in the experiment with vasopressin V1 (setting [12]), 17.5; in the experiment with vasopressin V1 (setting [13]), 22.5; with vasopressin V1 (setting [14]), 17.5. In addition, the “Average Change” value with vasopressin V1 (setting [15]) turned out to be 20; in the experiment on vasopressin V1 (setting [16]), 17.5; in the experiment with vasopressin V1 (setting [17]), 20; with vasopressin V1 (setting [18]) it was 25; in the experiment on vasopressin V1 (setting [19]) it was 30; with vasopressin V1 (setting [20]), 22.5. Further, the “Average Change” value with vasopressin V1 (setting [21]) was found to be 30; in the experiment on vasopressin V1 (setting [22]) it was 17.5; with vasopressin V1 (setting [23]), 30; in the experiment with vasopressin V1 (setting [24]), 20; in the experiment on vasopressin V1 (setting [25]), 22.5; in the experiment on vasopressin V1 (setting [26]), 35. For the same compound, the “Average Change” value was determined as 35.5 in the experiment on vasopressin V1 (setting [27]); 32.5 in the experiment on vasopressin V1 (setting [28]); 40 in the experiment on vasopressin V1 (setting [29]); 37.5 with vasopressin V1 (setting [30]); 38.5 in the experiment with vasopressin V1 (setting [31]). Also, the Inhibition with vasopressin V1 (setting [3]) is 22%; in the experiment on vasopressin V1 (setting [4]) it was -9%; with vasopressin V1 (setting [5]), 22%; in the experiment with vasopressin V1 (setting [6]) it was 61%; with vasopressin V1 (setting [7]) it was 33%; with vasopressin V1 (setting [8]), 64%. The Inhibition in the experiment on vasopressin V1 (setting [9]) is 64%; with vasopressin V1 (setting [10]) it was 45%; with vasopressin V1 (setting [11]), 55%; in the experiment with vasopressin V1 (setting [12]), 36%; with vasopressin V1 (setting [13]), 18%; with vasopressin V1 (setting [14]), 61%. The Inhibition was determined as 56% in the experiment with vasopressin V1 (setting [15]); 61% in the experiment on vasopressin V1 (setting [16]); 56% in the experiment on vasopressin V1 (setting [17]); 44% with vasopressin V1 (setting [18]); 33% in the experiment with vasopressin V1 (setting [19]); 10% in the experiment on vasopressin V1 (setting [20]). Further, the Inhibition is recorded as -20% with vasopressin V1 (setting [21]); 30% with vasopressin V1 (setting [22]); -20% in the experiment on vasopressin V1 (setting [23]); 20% in the experiment with vasopressin V1 (setting [24]); 10% in the experiment on vasopressin V1 (setting [25]); 0% in the experiment with vasopressin V1 (setting [26]). The Inhibition in the experiment on vasopressin V1 (setting [27]) is 7%; in the experiment on vasopressin V1 (setting [28]), 7%; in the experiment with vasopressin V1 (setting [29]), -14%; in the experiment with vasopressin V1 (setting [30]), -7%; in the experiment on vasopressin V1 (setting [31]), -10%.
As to `Cc1ccccc1C(=O)N(CN(C)C)c1ccc(C(=O)N2Cc3ccccc3Cc3ccccc32)cc1` [Example 267, N-[4-[(6,11-Dihydro-5H-dibenz[b,e]azepin-5-yl)-carbonyl]phenyl]-N-[(dimethylamino)methyl]-2-methylbenzamide], the IC50 in experiment [1] is 26 nM. For the same compound, in the experiment on vasopressin V2 (10 mg/kg orally), the Osmolality is 517 mOsm/kg and the “Urine Volume” value is 7.5 ml/4 hrs. In experiment [2], this compound registered a concentration for half-maximal inhibition (IC50) of 82 nM. In the experiment with vasopressin V1 (10 mg/kg i.v.), the “MAX % Inhibition” value is on record as 74% and the “Time of max % inhibition” value came out at 120 min.
In experiment [1], `Cc1ccccc1C(=O)Nc1ccc(C(=O)N2CCc3cn(C)nc3-c3ccccc32)cc1` [Example 379, N-[4-[(4,5-Dihydro-2-methylpyrazolo[4,3-d][1]-benzazepin-6(2H)-yl)carbonyl]phenyl]-2-methylbenzamide] came in with a concentration for half-maximal inhibition (IC50) of 250 nM. In the experiment on vasopressin V2 (20 mg/kg orally), the Osmolality worked out at 483 mOsm/kg and the “Urine Volume” value amounted to 7 ml/4 hrs. Moreover, the IC50 in experiment [2] is 53 nM. In the experiment on vasopressin V1 (10 mg/kg i.v.), the “MAX % Inhibition” value is listed as 75% and the “Time of max % inhibition” value amounted to 300 min.
`Cc1ncc2c(n1)-c1ccccc1N(C(=O)c1ccc(NC(=O)c3ccccc3C)cc1)CC2` [Example 416, N-[4-[(6,7-Dihydro-2-methyl-5H-pyrimido[5,4-d][1]-benzazepin-7-yl)carbonyl]phenyl]-2-methylbenzamide]: the IC50 in experiment [1] turned out to be 34500 nM. Further, in the experiment with vasopressin V2 (10 mg/kg orally), the Osmolality was determined as 1156 mOsm/kg and the “Urine Volume” value stood at 4.3 ml/4 hrs. In addition, in experiment [2], the 50% inhibitory concentration (IC50) was found to be 1100 nM. For the same compound, in the experiment on vasopressin V1 (30 mg/kg i.v.), the “MAX % Inhibition” value is on record as 44% and the “Time of max % inhibition” value is 90 min.

The values above are taken from patent publication US5834461A, “Tricyclic benzazepine vasopressin antagonists” (American Cyanamid Company, priority 1997, dated 1998).
